Measurements published in patent publication EP3009422A1, “Photo-switchable sulfonylureas and their uses” (Ludwig-Maximilians-Universität München, priority 2014, dated 2016).
pEC50, pIC50: −log10 of the molar value.

Assays:
SUR1 = molecular target: T1, SUR1 (Rattus norvegicus, UniProt Q09429); assay: [3H]-glibenclamide displacement radioassay in SUR1-expressing HEK293t cells; format: binding; details: displacement of [3H]-glibenclamide, SUR1-expressing HEK293t cells, n = 3
T1 construct: expressed in transfected cells; host or cells: HEK293t
Protocol: SUR1-expressing HEK293t cells were harvested and washed twice in assaying buffer containing in mM: 119 NaCl, 4.7 KCl, […], 1.2 KH2PO4, 1.2 MgSO4, 5 NaHCO3, and 20 HEPES, pH 7.4. In a 96-well plate, ∼200,000 cells/well were incubated for 50 min with [3H]-glibenclamide (PerkinElmer) and different concentrations of glimepiride (Sigma-Aldrich) or JB253. Incubation was terminated by rapid filtration through Whatman GF/C filters by means of a Brandel MWXR-96 TI harvester and filters were washed 3 times with ice-cold assay buffer. Radioactivity was counted 6 h after cell and filter lysis in 200 µL Rotiszint EcoPlus (Roth) using a Packard microbeta scintillation counter (PerkinElmer).
(§1) Data distribution was determined using the D'Agostino omnibus test. Non-multifactorial pairwise comparisons were made using either the Student's t-test. Interactions between multiple treatments were assessed using one-way ANOVA followed by pairwise comparisons using Bonferroni's post-hoc test. Effect sizes in islets/cells are usually sufficiently large that multiple animals/independent replication is a more important determinant of power in studies requiring statistical comparison. Non-linear regression was used to calculate the EC50 of normalized and log-transformed concentration-response curves. For [3H]-glibenclamide displacement assays, data points were fitted to the Hill equation before calculation of the halfmax value. In all cases, analysis was performed using Graphpad Prism (Graphpad Software) and IgorPro, and experimental numbers reported as independent biological replicates. No animals or data were excluded from the analysis and results were considered significant at P<0.05.

mouse islets = assay: Calcium imaging (fMCI) of beta cell activity in intact mouse islets; format: cell-based; details: for pEC50: mouse islets, concentration-response, read-out: EC50 for cytosolic Ca^2+ rises; for effect of high doses on the effects of JB253 on cytosolic Ca^2+: JB253-treated mouse islets, 405 nm, n = 4-6 recordings
Protocol: Male and female CD1 and C57BL6 mice (8-20 weeks) were maintained in a specific pathogen-free facility under a 12h light-dark cycle with ad libitum access to water and food. Animals were euthanized using a schedule-1 method and pancreatic islets isolated by collagenase digestion. All procedures were regulated by the Home Office according to the Animals (Scientific Procedures) Act 1986 of the United Kingdom (PPL 70/7349), and study approval granted by the Animal Welfare and Ethical Review Body (AWERB) of Imperial College. No randomization was used for animal experimentation, since mice were only used as tissue donors.
(§2) Islets were loaded for 30-45 min in fluo2-AM (10 µM) or for 2-5 min with X-Rhod 1 (5 µM) diluted with a mixture of DMSO (0.01%, wt/vol) and pluronic acid (0.001%, wt/vol; all Invitrogen) in a bicarbonate buffer containing in mM: 120 NaCl, 4.8 KCl, 1.25 NaH2PO4, 24 NaHCO3, 2.5 CaCl2, 1.2 MgCl2 and 5 D-glucose. fMCI was performed using a Zeiss Axiovert M200 fitted with a Nipkow spinning-disk head (Yokogawa CSU-10) and a 10x/0.3NA objective adjusted for chromatic aberration (EC Plan-Neofluar, Zeiss). Pulsed excitation (frequency = 0.5 Hz; exposure = 263 ms) was delivered at 491 nm and emitted signals recorded at 500-550 nm with a back-illuminated 16-bit EM-CCD camera (ImageEM 9100-13; Hamamatsu). During recording, islets were maintained at 35-36 °C in the presence of 50 µM JB253 using a custom-manufactured perfusion and heating system (Digital Pixel). Drugs were introduced through the perfusion system at the indicated time points and concentrations. Violet light was delivered by a 405 ± 5 nm laser coupled to the side port of the microscope and configured to fill the back of the objective with light using an Optospot (Cairn Research). Blue light was delivered using 440 ± 5 nm and 491 ± 5 nm diode lasers controlled by a laser merge module (Spectral Applied Research) to allow simultaneous exposure and acquisition. For single islet targeting, a 473 ± 5 nm laser was coupled to a custom-manufactured dichroic array (Cairn Research), allowing user-directed steering of a collimated laser spot across the field of view. Signals were normalized using F/Fmin where F is fluorescence at a given timepoint and Fmin is minimum fluorescence.
as §1

human islets = assay: Calcium imaging in isolated human islets of Langerhans; format: cell-based; details: JB253-treated human islets, 440 nm and 491 nm
Protocol: Human islets were isolated from deceased heart-beating donors (n = 3) at transplantation facilities in Pisa and Edmonton with the relevant national and local ethical permissions, including consent from next of kin where required, and cultured in RPMI supplemented with 5.5 mM D-glucose, 10% foetal calf serum (FCS), 100 U penicillin, 100 µg streptomycin and 0.25/µl fungizone (37 °C, 5% CO2). All studies involving human tissue were approved by the National Research Ethics Committee (NRES) London (Fulham), REC # 07/H0711/114.
as §2, with “For single islet targeting, a 473 ± 5 nm laser was coupled to a custom-manufactured dichroic array (Cairn Research), allowing user-directed steering of a collimated laser spot across the field of view.” left out

isolated murine islets = assay: Insulin secretion from isolated islets (static incubation, radioimmunoassay); format: cell-based, mouse; details: diazoxide 250 µM, JB253 50 µM, illumination
Protocol: Insulin secretion was measured from 6 islets per well, incubated at 37 °C for 30 min in 0.5 ml of Krebs-HEPES-bicarbonate (KHB) solution (containing in mM: 130 NaCl, 3.6 KCl, 1.5 CaCl2, 0.5 MgSO4, 0.5 NaH2PO4, 2 NaHCO3, 10 HEPES, and 0.1 % (wt/vol) BSA, pH 7.4) containing the indicated glucose concentration and tolbutamide (100 µM), glimeperide (50 µM), diazoxide (250 µM) and JB253 (50 µM). Illumination (λ = 405 ± 20 nm and 485 ± 6 nm) was performed using a Fluostar Optima microplate reader (BMG Labtech) set to deliver 30 s of light every 2 min to the designated wells. Insulin concentrations were determined in duplicate using specific radioimmunoassay (EMD Millipore).

Epac2A = assay: Epac2-camps FRET imaging in HEK293t cells; format: cell-based; details: HEK293t cells expressing full length Epac2-camps; JB253 as cis-JB253 (excitation 440 nm)
Protocol: For EPAC2 imaging, HEK293t were transfected with the full length construct for […] containing the cAMP and sulfonylurea binding domains (obtained from Prof. […] Excitation was delivered at 440 nm and emitted signals captured using […] filters. FRET was calculated as the ratio of Cerulean (CFP):Venus (YFP) fluorescence. Signals were normalized using R/R0 where R is the ratio at a given timepoint and R0 is the minimum ratio.

T1 sequence (Q09429 whole entry): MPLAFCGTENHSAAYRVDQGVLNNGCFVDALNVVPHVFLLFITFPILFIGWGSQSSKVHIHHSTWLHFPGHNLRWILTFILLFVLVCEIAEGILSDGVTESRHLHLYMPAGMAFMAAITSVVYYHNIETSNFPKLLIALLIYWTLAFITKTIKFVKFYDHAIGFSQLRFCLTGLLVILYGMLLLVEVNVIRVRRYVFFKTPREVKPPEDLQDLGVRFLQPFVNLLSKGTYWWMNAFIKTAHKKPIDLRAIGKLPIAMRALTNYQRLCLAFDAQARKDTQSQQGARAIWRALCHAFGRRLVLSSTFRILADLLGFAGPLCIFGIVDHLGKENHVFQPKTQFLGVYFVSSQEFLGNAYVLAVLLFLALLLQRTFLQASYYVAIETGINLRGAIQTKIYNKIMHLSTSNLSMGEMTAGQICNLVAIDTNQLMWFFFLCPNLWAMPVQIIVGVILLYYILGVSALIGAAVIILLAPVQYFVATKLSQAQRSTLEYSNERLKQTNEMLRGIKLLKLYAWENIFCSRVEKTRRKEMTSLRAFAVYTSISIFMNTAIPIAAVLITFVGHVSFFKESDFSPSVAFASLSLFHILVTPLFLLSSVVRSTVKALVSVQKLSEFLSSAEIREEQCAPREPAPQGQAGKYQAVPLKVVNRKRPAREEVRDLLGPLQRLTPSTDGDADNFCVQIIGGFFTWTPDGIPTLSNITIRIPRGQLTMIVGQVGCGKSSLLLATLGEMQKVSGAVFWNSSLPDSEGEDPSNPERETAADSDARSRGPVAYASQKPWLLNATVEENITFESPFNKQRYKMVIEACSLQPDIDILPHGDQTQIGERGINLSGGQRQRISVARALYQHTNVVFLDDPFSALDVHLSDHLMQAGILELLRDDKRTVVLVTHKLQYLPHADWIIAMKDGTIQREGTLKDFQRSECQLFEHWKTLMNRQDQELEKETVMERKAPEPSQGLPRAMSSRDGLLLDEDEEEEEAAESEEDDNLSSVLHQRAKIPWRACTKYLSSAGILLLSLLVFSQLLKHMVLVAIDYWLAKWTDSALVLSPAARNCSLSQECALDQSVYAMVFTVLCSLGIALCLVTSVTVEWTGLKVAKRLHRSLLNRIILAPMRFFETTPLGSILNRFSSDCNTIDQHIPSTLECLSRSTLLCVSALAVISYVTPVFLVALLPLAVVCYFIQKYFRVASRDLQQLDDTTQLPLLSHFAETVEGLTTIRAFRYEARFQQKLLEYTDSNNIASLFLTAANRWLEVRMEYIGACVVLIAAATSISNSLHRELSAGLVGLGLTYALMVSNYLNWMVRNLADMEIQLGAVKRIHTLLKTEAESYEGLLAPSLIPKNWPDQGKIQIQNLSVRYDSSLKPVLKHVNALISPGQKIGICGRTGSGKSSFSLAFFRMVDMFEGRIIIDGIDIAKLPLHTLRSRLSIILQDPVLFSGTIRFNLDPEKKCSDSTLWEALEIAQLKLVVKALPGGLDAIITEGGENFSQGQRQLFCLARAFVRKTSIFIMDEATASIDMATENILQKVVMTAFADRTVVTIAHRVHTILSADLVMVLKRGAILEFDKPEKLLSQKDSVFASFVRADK

| pIC50 (SUR1) | Structure (SMILES) | pIC50 (SUR1; cis-state may relax thermally during washing) | pEC50 (mouse islets) | effect of high doses on the effects of JB253 on cytosolic Ca^2+ (mouse islets) | effect on JB253 effects on intracellular Ca^2+ (human islets) | effect on light-induced insulin secretion of JB253-treated islets (isolated murine islets) | ΔR/R0 (decrease in FRET) (Epac2A) [AU] |
| --- | --- | --- | --- | --- | --- | --- | --- |
| – | CCN(CC)c1ccc(/N=N\c2ccc(S(=O)(=O)NC(=O)NC3CCCCC3)cc2)cc1 [cis-JB253] | 4.83 | 6.17 | – | – | – | – |
| – | CC1=NS(=O)(=O)c2cc(Cl)ccc2N1 [diazoxide, reference compound] | – | – | suppress | reversed | partially reversed | – |
| 8.08 | CCC1=C(C)CN(C(=O)NCCc2ccc(S(=O)(=O)NC(=O)N[C@H]3CC[C@H](C)CC3)cc2)C1=O [glimepiride, reference compound] | – | 6.40 | – | – | – | 0.052 |
| – | CCCCNC(=O)NS(=O)(=O)c1ccc(C)cc1 [tolbutamide, reference compound] | – | – | augment | mimicked | – | – |
